For data set [1] the following is noted: rat, in vivo.
A further data set deals with MDA-MB-231. Nature of the data set: Growth inhibition, neutral red assay, MDA-MB-231. Conditions: free base, five days. It is filed as cell-based, human. As to the method: (§1) Compound I's activity is not confined to activity against colon cancer cell lines or animal models of colon cancer. It has a broad range of anti-neoplastic effects in various neoplastic cell lines. Various types of human cancer cell lines were propagated under sterile conditions in RPMI 1640 medium with 10% fetal bovine serum, […] L-glutamine and sodium bicarbonate. To determine growth inhibitory effects of Compound I, cells were seeded in 96-well plates at a density of 1000 cells per well. Twenty-four hours after plating, the cells were dosed with various concentrations of the free base of Compound I solubilized in DMSO (final concentration 0.1%). The effect of the drug on tumor cell growth was determined using the neutral red cytotoxicity assay following five days of continuous treatment. Neutral red is a dye that is selectively taken up by viable cells by an ATP-dependent transport mechanism.

Data set [2] can be described thus: Seven-day dose-range finding study in rats. Conditions: seven days. The data set is classed as in vivo.
The conditions of data set [3]: dog, in vivo.
The next data set relates to PC-3. The experiment in a line: Growth inhibition, neutral red assay, PC-3. Conditions: free base, five days. The data set is classed as cell-based, human. On the procedure: as §1
Data set [4] has as its system LNCaP prostate tumor cell line. Nature of the data set: Histone-associated DNA fragmentation in LNCaP cells. It is filed as cell-based. Conditions: 50 μM free base, up to 4 days. On the procedure: (§2) The androgen-sensitive prostate tumor cell line, LNCAP (from ATCC (Rockville, Md.)) was propagated under standard conditions using […] medium containing 5% fetal calve serum and 2 mM glutamine. Primary prostate epithelial cell cultures (PrEC) derived from normal prostate (from Clonetics Inc. (San Diego, Calif.)) were grown under the same conditions as the tumor cell line except a serum-free medium optimized for the growth of such cultures was used (Clonetics Inc). For the experiments, LNCaP or PrEC cells were seeded in 96 well plates at a density of 10,000 cells per well. After 24 hours, the cells were treated with either vehicle (0.1% DMSO) or 50 μM Compound I (freebase) solubilized in DMSO. After various drug treatment times (4, 24, 48, 72, or 99 hours) the cells were lysed and processed for measurement of histone-associated DNA as an indicator of apoptotic cell death (see, Piazza et al., Cancer Research 57: 2452-2459, 1997).
(§3) This is in marked contrast to conventional chemotherapeutics that induce apoptosis or necrosis in rapidly growing normal and neoplastic cells alike.

Data set [5] has as its system aberrant crypt foci (AOM-induced carcinogenesis). Nature of the data set: Azoxymethane-induced aberrant crypt foci (ACF) model in rats. Conditions: for Mean ACF/colon (+SE): free base, 5 weeks. It is filed as in vivo, male Fisher 344 rats. On the procedure:
The growth inhibition IC50 value obtained for Compound I was 0.7 μM in the SW-480 cell line. […] This established rodent model of azoxymethane (“AOM”)-induced carcinogenesis was used to assess the effects of Compound I (free base and salt) on colon cancer development in vivo. ACF are precursors to colonic tumors, and ACF inhibition is predictive of chemo-preventive efficacy.
In the rats in this experiment, ACF initiation was achieved by two consecutive weekly injections of the carcinogen. Compound I was administered one week prior to ACF initiation and for the duration of the experiment. ACFs were scored after 5 weeks of treatment. Compound I was administered orally to male Fisher 344 rats in the rat chow. Daily food consumption (mg/kg body weight) varied over the course of the study, and therefore Compound I dose was expressed a grams per kg of diet to provide a basis of comparison between doses. […] The experimental groups gained less weight than the controls, which was indicative of bloavailability. However, the weight differences were less than 10% and not considered to affect ACF formation.
The free base of Compound I inhibited ACF formation as measured by a reduction of crypts per colon. With the exception of the low dose group (only 0.5 g/kg diet), the differences between treatment and control groups were substantial, and statistically significant in the case of the 1.0 and 2.0 g/kg diet group.

Data set [6] has as its system PrEC primary prostate epithelial cells derived from normal prostate. Nature of the data set: Histone-associated DNA fragmentation in PrEC cells. Conditions: 50 μM, up to 4 days. It is filed as cell-based. As to the method: as §2, §3
The next data set deals with NCI-H322M. The experiment in a line: Growth inhibition, neutral red assay, NCI-H322M. It is filed as cell-based, human. Conditions: free base, five days. On the procedure: as §1
Data set [7] is described as follows: Single, escalating dose human safety study. It is filed as in vivo. Conditions: oral.
The nature of a further data set: 28-day study in rats. It is filed as in vivo.

Counter-ions that a name gives are not always drawn. Like-named read-outs stand apart in the source and are kept apart here.

As for `CC1=C(CC(=O)NCc2ccccc2)c2cc(F)ccc2/C1=C\c1ccncc1` [Compound I, (Z)-5-fluoro-2-methyl-(4-pyridylidene)-3-(N-benzyl)indenylacetamide hydrochloride], the “toxicity findings” value in data set [1] (ip, 1000 mg/kg) is “reduced body weight gain, with mesenteric adhesions seen in some animals”; in data set [2] (50 mg/kg/day) it was “no observable signs of toxicity”; in data set [2] (500 mg/kg/day), “an increase in absolute and relative liver weights in female rats”; in data set [2] (2000 mg/kg/day), “labored breathing and/or abnormal respiratory sounds, decreased weights gains and food consumption in male rats, and increased liver weights in female rats”. Besides, the “body weight gain” value in data set [1] (po, 4000 mg/kg) is on record as “body weight gains were slightly reduced”. In addition, in the data set on MDA-MB-231, the “GI90 μM MDA-MB-231” value amounted to 77.6 µM. For the same compound, in data set [3] (1000 mg/kg), the “signs of toxicity” value is “no signs of toxicity”. The “drug-related effects” value in data set [3] (1000 mg/kg/day) is “At no time in either dosing phase were any obvious signs of drug-related effects observed”. The “GI90 μM PC-3” value in the data set with PC-3 is 82.5 µM. Besides, the “histone-associated fragmented DNA” value in data set [4] is listed as “significant increase in fragmented DNA”. Also, the “Mean ACF/colon (+SE)” value in data set [5] (0.5 g/kg diet) turned out to be 149 ± 14 ACF/colon; in data set [5] (1 g/kg diet) it was 111 ± 9 ACF/colon; in data set [5] (1.5 g/kg diet), 132 ± 4 ACF/colon; in [5] (2.0 g/kg diet), 107 ± 15 ACF/colon. In addition, the “body weight difference versus controls” value in [5] (rats, compound in chow) is “less than 10%”. Further, the “DNA fragmentation” value in data set [6] is given as “did not affect DNA fragmentation”. Moreover, the “GI90 μM NCI-H322M” value in the data set with NCI-H322M came out at 13.2 µM. The “side effects” value in data set [7] is listed as “no significant side effects at any dose”. In addition, in “28-day study in rats” (28 days, 2000 mg/kg/day), the “organ weights” value is listed as “statistically significant increase in liver weights”. For the same compound, the “clinical observations” value in the data set “28-day study in rats” (28 days, 50, 500 and 2000 mg/kg/day) was “no abnormal clinical observations”.
